In paper PMC11477621, “Design, Synthesis, and Biological Evaluation of HDAC Inhibitors Containing Natural Product-Inspired N-Linked 2-Acetylpyrrole Cap” (Molecules, 2024):

Assays:
[1] = tested on: RPMI-8226 (human myeloma cell line); test: CCK8 cell viability assay, RPMI-8226; type: cell-based; conditions: 72 h, read-out: Proliferation inhibition IC50 ± SD, RPMI-8226
Method: (§1) The CCK8 (#AC11L054, Life ilab, Shanghai, China) method was used to detect the cells’ proliferation. Cells were seeded into a 96-well culture plate at an appropriate density. […] IC50 values were estimated using the four-parameter method. Each set of experiments was repeated independently three times with three replicate wells per concentration each time.

[2] = tested on: HL-60 (human leukemia cell line); test: CCK8 cell viability assay, HL-60; type: cell-based; conditions: 72 h, read-out: Proliferation inhibition IC50 ± SD, HL-60
Method: as §1

[3] = tested on: Ac-tubulin in RPMI-8226 cells; test: Western blot of Ac-tubulin; type: cell-based, human; conditions: tested concentrations, 24 h
Method: RPMI-8226 cells were seeded in six-well plates and treated with compounds for 24 h. Cells were lysed with 1× SDS loading buffer (50 mM Tris pH 6.8, 100 mM DTT, 2% SDS, 0.1% bromophenol blue, 10% glycerol), and then centrifuged at 12,000 rpm for 5 min at 4 °C. Cell extracts were probed with antibodies Ac-Tubulin (#5335T, CST, Kansas City, MO, USA), α-Tubulin (#2144S, CST, Kansas City, MO, USA), AcH3 (#ab39139, active motif, Carlsbad, CA, USA), Histone H3 (#17168-1-AP, Proteintech, Chicago, IL, USA), GAPDH (#60004-1-1g, Proteintech, Chicago, IL, USA), Goat Anti-Mouse IgG, H&L Chain Specific Peroxidase Conjugate (#401215, Calbiochem, Darmstadt, Germany), Goat Anti-Rabbit IgG, or H&L Chain Specific Peroxidase Conjugate (#401353, Calbiochem, Germany), then detected using Bio-RAD power pal Basic (#041BR66615, BioRad Laboratories, Hercules, CA, USA), Bio-RAD Mini-PROTEAN Tetrade System (#IEC/EN 61010-1, BioRad Laboratories, Hercules, CA, USA), or Bio-RAD Chemi Touch Imagin (BioRad Laboratories, Hercules, CA, USA).

[4] = tested on: HCT-116 (human colon cancer cell line); test: CCK8 cell viability assay, HCT-116; type: cell-based; conditions: 72 h, read-out: Proliferation inhibition IC50 ± SD, HCT-116
Method: as §1

[5] = target: T1, HDAC1 (Homo sapiens, UniProt Q13547); test: HDAC inhibition assay (HTRF), HDAC1; type: biochemical; conditions: for IC50: read-out: IC50 ± SD, HDAC1;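 as to all read-outs here: HTRF detection with streptavidin-XL665 plus Eu(K)-labelled anti-H3K9me0 antibody, two independent runs with duplicate wells per concentration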
T1 construct: purchased BPS #50001
Method: (§2) Then, SA-XL665 (#610SAXLG, Cisbio, Bedford, MA, USA) and anti-H3K9me0-Eu(K) (#61KB0KAD, Cisbio, USA) were added. […] The IC50 value of the compounds was calculated using GraphPad 7.0 software. Each set of experiments was independently repeated twice, with two replicate wells per concentration each time.

[6] = target: HDAC3 (Homo sapiens, UniProt O15379); test: HDAC inhibition assay (HTRF), HDAC3;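 also: HTRF detection with streptavidin-XL665 and a Eu cryptate-labelled antibody against unmodified H3K9, two independent runs with duplicate wells at each concentration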
Method: as §2

[7] = target: T2, HDAC6 (Homo sapiens, UniProt Q9UBN7); test: HDAC inhibition assay (HTRF), HDAC6; type: biochemical; conditions: for IC50: read-out: IC50 ± SD, HDAC6
T2 construct: purchased BPS #50006
T2 sequence (Q9UBN7 1-1215): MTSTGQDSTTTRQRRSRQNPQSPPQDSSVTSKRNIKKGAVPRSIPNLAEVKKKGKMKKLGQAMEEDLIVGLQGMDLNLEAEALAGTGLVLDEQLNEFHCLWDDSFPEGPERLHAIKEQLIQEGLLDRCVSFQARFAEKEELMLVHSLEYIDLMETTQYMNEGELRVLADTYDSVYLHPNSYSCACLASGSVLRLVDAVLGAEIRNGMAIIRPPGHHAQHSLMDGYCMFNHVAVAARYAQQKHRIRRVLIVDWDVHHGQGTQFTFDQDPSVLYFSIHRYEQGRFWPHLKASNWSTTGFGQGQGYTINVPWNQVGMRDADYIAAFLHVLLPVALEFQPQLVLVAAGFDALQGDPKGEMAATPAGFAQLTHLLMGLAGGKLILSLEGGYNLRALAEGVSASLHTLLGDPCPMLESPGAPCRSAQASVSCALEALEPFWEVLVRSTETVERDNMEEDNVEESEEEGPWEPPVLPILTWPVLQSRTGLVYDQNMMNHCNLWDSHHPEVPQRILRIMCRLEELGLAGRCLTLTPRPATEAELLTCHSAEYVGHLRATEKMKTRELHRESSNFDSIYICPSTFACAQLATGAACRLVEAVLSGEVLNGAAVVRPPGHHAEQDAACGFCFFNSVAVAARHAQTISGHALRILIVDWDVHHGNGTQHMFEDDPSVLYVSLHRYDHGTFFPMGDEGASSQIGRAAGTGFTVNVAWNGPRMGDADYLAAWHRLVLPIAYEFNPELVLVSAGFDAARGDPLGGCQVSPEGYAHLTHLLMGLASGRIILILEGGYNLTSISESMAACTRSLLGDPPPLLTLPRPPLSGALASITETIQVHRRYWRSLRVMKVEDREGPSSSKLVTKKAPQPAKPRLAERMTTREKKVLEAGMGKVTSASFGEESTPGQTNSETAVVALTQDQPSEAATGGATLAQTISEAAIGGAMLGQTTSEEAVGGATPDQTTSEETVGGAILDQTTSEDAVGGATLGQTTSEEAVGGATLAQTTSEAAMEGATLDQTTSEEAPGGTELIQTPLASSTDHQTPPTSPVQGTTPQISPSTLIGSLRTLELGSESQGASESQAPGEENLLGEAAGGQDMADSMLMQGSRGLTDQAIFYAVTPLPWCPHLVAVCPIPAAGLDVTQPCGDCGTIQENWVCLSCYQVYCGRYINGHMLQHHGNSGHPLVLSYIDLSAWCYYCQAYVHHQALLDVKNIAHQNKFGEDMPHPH
Method: as §2

[8] = read-out: (%) Inhibition of HDAC3

T1 sequence (Q13547 whole entry): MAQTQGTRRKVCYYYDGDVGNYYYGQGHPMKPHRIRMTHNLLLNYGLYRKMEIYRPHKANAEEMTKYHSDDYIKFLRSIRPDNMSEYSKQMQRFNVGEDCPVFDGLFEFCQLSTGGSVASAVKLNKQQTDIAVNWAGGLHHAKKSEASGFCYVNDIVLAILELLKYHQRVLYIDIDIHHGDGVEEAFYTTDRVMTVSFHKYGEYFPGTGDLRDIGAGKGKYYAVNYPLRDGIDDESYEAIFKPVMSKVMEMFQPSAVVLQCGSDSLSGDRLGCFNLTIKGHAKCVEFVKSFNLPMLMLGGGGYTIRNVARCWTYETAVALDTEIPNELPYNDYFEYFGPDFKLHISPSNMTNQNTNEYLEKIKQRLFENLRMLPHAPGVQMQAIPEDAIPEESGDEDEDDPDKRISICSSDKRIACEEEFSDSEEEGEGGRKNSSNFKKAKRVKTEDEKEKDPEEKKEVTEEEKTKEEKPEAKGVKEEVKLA
Chain of HDAC3 (O15379 whole entry): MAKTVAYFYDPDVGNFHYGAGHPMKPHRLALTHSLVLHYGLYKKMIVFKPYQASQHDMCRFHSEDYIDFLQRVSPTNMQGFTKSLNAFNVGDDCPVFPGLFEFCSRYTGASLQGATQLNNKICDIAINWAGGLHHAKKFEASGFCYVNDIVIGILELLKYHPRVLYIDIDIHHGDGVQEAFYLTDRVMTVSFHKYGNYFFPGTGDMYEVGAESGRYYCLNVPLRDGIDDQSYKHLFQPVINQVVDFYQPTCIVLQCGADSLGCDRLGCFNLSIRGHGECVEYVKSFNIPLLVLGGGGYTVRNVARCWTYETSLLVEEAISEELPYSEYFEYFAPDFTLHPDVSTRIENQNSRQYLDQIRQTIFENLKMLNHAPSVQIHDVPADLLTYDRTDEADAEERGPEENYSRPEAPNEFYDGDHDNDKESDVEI
Chain of HDAC3 (Q9Y618 395-489 partner limits assumed): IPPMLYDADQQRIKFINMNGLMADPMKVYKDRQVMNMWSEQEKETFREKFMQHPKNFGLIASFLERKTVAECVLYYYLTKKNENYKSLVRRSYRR

Compound	IC50 [1] [µM]	IC50 [2] [µM]	IC50 [4] [µM]	IC50 [5] [µM]	IC50 [6] [µM]	IC50 [7] [µM]	inhibition at 1 µM [5] [%]	inhibition at 1 µM [6, 8] [%]	inhibition at 1 µM [7] [%]	inhibition at 10 µM ([5]; at 10 μM) [%]	inhibition at 10 µM [6, 8] [%]	inhibition at 10 µM ([7]; at 10 μM) [%]	Ac-α-tubulin protein expression [3]
Nc1cc(F)ccc1NC(=O)c1ccc(CNC(=O)/C=C/c2cccnc2)cc1 [Chidamide, reference compound]	10.2 ± 1.02	0.5 ± 0.08	4.67 ± 0.53										no discernible effect
CC(=O)c1cccn1CCCC(=O)NO [Compound 3a, 4-(2-Acetyl-1H-pyrrol-1-yl)-N-hydroxybutanamide]				> 10	> 10	> 10							
CC(=O)c1cccn1CCCCC(=O)NO [Compound 3b, 5-(2-Acetyl-1H-pyrrol-1-yl)-N-hydroxypentanamide]				0.426 ± 0.0138	> 10	> 10							
CC(=O)c1cccn1CCCCCC(=O)NO [Compound 3c, 6-(2-Acetyl-1H-pyrrol-1-yl)-N-hydroxyhexanamide]				0.118 ± 0.0308	0.138 ± 0.0186	0.0823 ± 0.0152							
CC(=O)c1cccn1CCCCCCC(=O)NO [Compound 3d, 7-(2-Acetyl-1H-pyrrol-1-yl)-N-hydroxyheptanamide]	> 30	> 30	> 30	0.0519 ± 0.00673	0.04553 ± 0.00023	0.0142 ± 0.00124							
CC(=O)c1cccn1CCCCCCCC(=O)NO [Compound 3e, 8-(2-Acetyl-1H-pyrrol-1-yl)-N-hydroxyoctanamide]				0.0824 ± 0.0312	0.085 ± 0.00121	0.0155 ± 0.0029							
O=C(CCCCCCn1cccc1)NO [Compound 5a, N-hydroxy-7-(1H-pyrrol-1-yl)heptanamide]	> 30	19.8 ± 1.88	26.4 ± 4.1	0.101 ± 0.0257	0.129 ± 0.0516	0.0164 ± 0.00631							
CCC(=O)c1cccn1CCCCCCC(=O)NO [Compound 5b, N-hydroxy-7-(2-propionyl-1H-pyrrol-1-yl)heptanamide]	19.9 ± 7.71	12.9 ± 0.75	23 ± 7.03	0.0542 ± 0.00874	0.0582 ± 0.00464	0.00767 ± 0.00106							
COC(=O)c1cccn1CCCCCCC(=O)NO [Compound 5d, Methyl 1-(7-(hydroxyamino)-7-oxoheptyl)-1H-pyrrole-2-carboxylate]	> 30	21.8 ± 10.7	> 30	0.052 ± 0.0219	0.0495 ± 0.00292	0.0112 ± 0.00476							
O=C(CCCCCCn1cccc1C(=O)c1ccccc1)NO [Compound 5e, 7-(2-Benzoyl-1H-pyrrol-1-yl)-N-hydroxyheptanamide]	17.9 ± 6.51	7.5 ± 1.55	19.8 ± 8.32	0.0137 ± 0.00439	0.00308 ± 0.00097	0.00974 ± 0.00637							
O=C(CCCCCCn1ccc2ccccc21)NO [Compound 5f, N-hydroxy-7-(1H-indol-1-yl)heptanamide]	> 30	> 30	> 30				96.8	94.4	92.6				
Cc1ccc2c(ccn2CCCCCCC(=O)NO)c1 [Compound 5g, N-hydroxy-7-(5-methyl-1H-indol-1-yl)heptanamide]	> 30	> 30	> 30				96.1	93.5	91.5				
O=C(CCCCCCn1ccc2ccc(F)cc21)NO [Compound 5h, 7-(6-Fluoro-1H-indol-1-yl)-N-hydroxyheptanamide]	> 30	> 30	> 30				96.5	93.2	92.4				
O=C(CCCCCCn1ccc2cc(F)ccc21)NO [Compound 5i, 7-(5-Fluoro-1H-indol-1-yl)-N-hydroxyheptanamide]	> 30	> 30	> 30	0.00448 ± 0.00243	0.00182 ± 0.00078	≤ 0.0017							
O=C(CCCCCCn1ccc2cc(Cl)ccc21)NO [Compound 5j, 7-(5-Chloro-1H-indol-1-yl)-N-hydroxyheptanamide]	> 30	> 30	> 30				96.2	93.3	92.3				
Nc1ccccc1NC(=O)c1ccc(CNC(=O)OCc2cccnc2)cc1 [MS-275, entinostat, reference compound]													no discernible effect

The next lines start with results.

IC50 [1] [µM]	IC50 [2] [µM]	IC50 [4] [µM]	IC50 [5] [µM]	IC50 [6] [µM]	IC50 [7] [µM]	inhibition at 1 µM [5] [%]	inhibition at 1 µM [6, 8] [%]	inhibition at 1 µM [7] [%]	inhibition at 10 µM ([5]; at 10 μM) [%]	inhibition at 10 µM [6, 8] [%]	inhibition at 10 µM ([7]; at 10 μM) [%]	Compound	Ac-α-tubulin protein expression [3]
> 30	> 30	> 30				96.2	92.2	90.3				O=C(CCCCCCn1ccc2cc(Br)ccc21)NO [Compound 5k, 7-(5-Bromo-1H-indol-1-yl)-N-hydroxyheptanamide]	
> 30	> 30	> 30	0.00242 ± 0.00036	0.00118 ± 6e-05	0.00231 ± 0.00034							N#Cc1ccc2c(ccn2CCCCCCC(=O)NO)c1 [Compound 5l, 7-(5-Cyano-1H-indol-1-yl)-N-hydroxyheptanamide]	
11.7 ± 1.75	28 ± 0.56	17.1 ± 8.69							77.6	79.9	89.5	CC(=O)c1cccn1CCc1ccc(C(=O)NO)cc1 [Compound 11, 4-(2-(2-Acetyl-1H-pyrrol-1-yl)ethyl)-N-hydroxybenzamide]	
			> 10	> 10	> 10							CC(=O)c1cccn1Cc1cn(CCc2ccc(C(=O)Nc3ccc(F)cc3N)cc2)nn1 [Compound 19b, 4-(2-(4-((2-Acetyl-1H-pyrrol-1-yl)methyl)-1H-1,2,3-triazol-1-yl)ethyl)-N-(2-amino-4-fluorophenyl)benzamide]	
			> 10	> 10	> 10							CC(=O)c1cccn1Cc1cn(CCc2ccc(C(=O)Nc3ccc(Cl)cc3N)cc2)nn1 [Compound 19c, 4-(2-(4-((2-Acetyl-1H-pyrrol-1-yl)methyl)-1H-1,2,3-triazol-1-yl)ethyl)-N-(2-amino-4-chlorophenyl)benzamide]	
			> 10	> 10	> 10							CC(=O)c1cccn1Cc1cn(CCc2ccc(C(=O)Nc3cc(F)c(F)cc3N)cc2)nn1 [Compound 19d, 4-(2-(4-((2-Acetyl-1H-pyrrol-1-yl)methyl)-1H-1,2,3-triazol-1-yl)ethyl)-N-(2-amino-4,5-difluorophenyl)benzamide]	
			> 10	> 10	> 10							COc1ccc(NC(=O)c2ccc(CCn3cc(Cn4cccc4C(C)=O)nn3)cc2)c(N)c1 [Compound 19e, 4-(2-(4-((2-Acetyl-1H-pyrrol-1-yl)methyl)-1H-1,2,3-triazol-1-yl)ethyl)-N-(2-amino-4-methoxyphenyl)benzamide]	
